Blank lines part the entries; values can stand above or below the compound they belong to.
Key:
[1] = tested on: mechanical allodynia; assay: Chronic constriction model of pain, mechanical allodynia (Dynamic Plantar Aesthesiometer); format: in vivo, male Sprague-Dawley rats; details: oral 10 mg/kg
Experimental: (§1) Neuropathic pain behavior will be induced by ligation of the sciatic nerve according to the method described by Bennett G J et al., Pain. 33: 87-107, 1988. Briefly, male Sprague-Dawley rats will be anaesthetized (100 mg/kg ketamine and 10 mg/kg xylazine i.p.) and the left sciatic nerve will be exposed at the level of the thigh by blunt dissection through the biceps femoris. Proximal to the sciatic's trifurcation, about 12 mm of nerve will be freed of adhering tissue and four ligatures will be loosely tied around it with about 1 mm spacing so that the epineural circulation will be preserved. The length of nerve thus affected was 6-8 mm long. The animals will be allowed to recover and used the day after the surgery. Sham animals represent rats operated but not ligated.
(§2) All data were presented as the mean±SEM. Analysis of data was conducted using GraphPad Prism 4.01. Statistical analysis was performed by two-way ANOVA followed by Dunnett's test for multiple comparisons, as appropriate. Statistical significance was set at p<0.05.

[2] = molecular target: human NK1 (Homo sapiens (Human), UniProt P25103); assay: GPCR radioligand binding assay; details: tested at 10 μM in duplicate
[3] = molecular target: CYP1A2 (Homo sapiens (Human), UniProt P05177); assay: CYP450 Inhibition; format: in vitro ADME; details: at 10 μM
CYP1A2, sequence (P05177 whole entry): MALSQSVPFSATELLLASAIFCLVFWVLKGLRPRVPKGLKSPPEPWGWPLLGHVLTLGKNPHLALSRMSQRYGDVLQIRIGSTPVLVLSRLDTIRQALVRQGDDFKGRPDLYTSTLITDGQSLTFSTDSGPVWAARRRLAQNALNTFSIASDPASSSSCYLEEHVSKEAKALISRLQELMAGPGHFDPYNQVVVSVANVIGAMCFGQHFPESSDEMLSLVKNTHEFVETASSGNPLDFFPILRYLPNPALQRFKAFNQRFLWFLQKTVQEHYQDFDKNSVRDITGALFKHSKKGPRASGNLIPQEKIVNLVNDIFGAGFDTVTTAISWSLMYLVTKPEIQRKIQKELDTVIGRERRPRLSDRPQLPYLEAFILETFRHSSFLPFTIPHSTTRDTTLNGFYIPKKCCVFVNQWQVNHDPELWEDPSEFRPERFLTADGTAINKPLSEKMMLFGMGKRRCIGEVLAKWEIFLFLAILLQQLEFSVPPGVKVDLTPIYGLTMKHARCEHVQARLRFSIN

[4] = molecular target: human Dopamine D2S (Homo sapiens (Human), UniProt P14416); assay: GPCR radioligand binding assay; details: tested at 10 μM in duplicate
[5] = molecular target: human Bradykinin B1 (Homo sapiens (Human), UniProt P46663); assay: GPCR radioligand binding assay; details: tested at 10 μM in duplicate
human Bradykinin B1, sequence (P46663 whole entry): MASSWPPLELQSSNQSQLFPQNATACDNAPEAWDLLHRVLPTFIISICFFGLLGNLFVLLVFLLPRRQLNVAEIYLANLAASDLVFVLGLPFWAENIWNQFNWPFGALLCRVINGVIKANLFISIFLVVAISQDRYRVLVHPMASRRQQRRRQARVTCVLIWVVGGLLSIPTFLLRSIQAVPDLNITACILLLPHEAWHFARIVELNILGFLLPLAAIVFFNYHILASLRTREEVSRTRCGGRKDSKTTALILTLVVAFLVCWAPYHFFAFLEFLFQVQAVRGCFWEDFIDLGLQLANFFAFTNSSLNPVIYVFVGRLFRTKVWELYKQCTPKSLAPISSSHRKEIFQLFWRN

[6] = physchem
[7] = molecular target: human Opioid K (KOP) (Homo sapiens (Human), UniProt P41145); assay: GPCR radioligand binding assay; details: tested at 10 μM in duplicate
[8] = Rat Plasma Stability; format: in vitro ADME
[9] = molecular target: human Adrenergic α1A (Homo sapiens (Human), UniProt P35348); assay: GPCR radioligand binding assay; details: tested at 10 μM in duplicate
[10] = Plasma Protein Binding, human; format: in vitro ADME
[11] = molecular target: CYP2C19 (Homo sapiens (Human), UniProt P33261); assay: CYP450 Inhibition; format: in vitro ADME; details: at 10 μM
CYP2C19, sequence (P33261 whole entry): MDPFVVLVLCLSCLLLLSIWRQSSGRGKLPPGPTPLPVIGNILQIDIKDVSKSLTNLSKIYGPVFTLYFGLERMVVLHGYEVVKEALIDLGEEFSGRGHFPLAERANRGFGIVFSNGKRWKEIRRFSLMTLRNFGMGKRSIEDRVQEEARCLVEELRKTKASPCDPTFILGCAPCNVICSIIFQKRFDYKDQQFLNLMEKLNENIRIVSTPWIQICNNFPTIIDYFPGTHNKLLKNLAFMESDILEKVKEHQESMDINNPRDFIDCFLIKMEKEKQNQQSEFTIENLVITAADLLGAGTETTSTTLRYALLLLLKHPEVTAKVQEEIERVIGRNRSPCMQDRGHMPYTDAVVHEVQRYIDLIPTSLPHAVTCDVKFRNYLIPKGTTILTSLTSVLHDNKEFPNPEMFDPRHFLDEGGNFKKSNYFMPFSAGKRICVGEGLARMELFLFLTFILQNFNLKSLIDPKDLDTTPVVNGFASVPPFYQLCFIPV

[12] = Plasma Protein Binding, rat; format: in vitro ADME
[13] = molecular target: human Adrenergic α2A (Homo sapiens (Human), UniProt P08913); assay: GPCR radioligand binding assay; details: tested at 10 μM in duplicate
human Adrenergic α2A, sequence (P08913 whole entry): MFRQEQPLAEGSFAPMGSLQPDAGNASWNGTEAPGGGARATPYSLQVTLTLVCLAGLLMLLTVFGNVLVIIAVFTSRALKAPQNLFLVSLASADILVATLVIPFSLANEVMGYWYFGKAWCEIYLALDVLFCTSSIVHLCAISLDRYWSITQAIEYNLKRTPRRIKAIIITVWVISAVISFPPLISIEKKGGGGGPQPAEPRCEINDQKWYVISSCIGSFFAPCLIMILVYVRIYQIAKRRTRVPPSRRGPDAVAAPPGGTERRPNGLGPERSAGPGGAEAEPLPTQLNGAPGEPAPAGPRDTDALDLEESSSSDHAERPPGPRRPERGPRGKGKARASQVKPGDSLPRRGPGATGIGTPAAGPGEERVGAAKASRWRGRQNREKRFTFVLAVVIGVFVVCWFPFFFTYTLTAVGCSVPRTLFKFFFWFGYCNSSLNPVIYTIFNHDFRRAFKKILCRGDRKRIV

[14] = molecular target: human Opioid NOP (ORL1) (Homo sapiens (Human), UniProt P41146); assay: GPCR radioligand binding assay; details: tested at 10 μM in duplicate
[15] = tested on: cold allodynia; assay: Chronic constriction model of pain, cold allodynia (drop of acetone); format: in vivo, male Sprague-Dawley rats; details: oral 10 mg/kg
Experimental: as §1, §2

[16] = molecular target: CYP2D6 (Homo sapiens (Human), UniProt P10635); assay: CYP450 Inhibition; format: in vitro ADME; details: at 10 μM
[17] = molecular target: human Dopamine D3 (Homo sapiens (Human), UniProt P35462); assay: GPCR radioligand binding assay; details: tested at 10 μM in duplicate
[18] = molecular target: human Bradykinin B2 (Homo sapiens (Human), UniProt P30411); assay: GPCR radioligand binding assay; details: tested at 10 μM in duplicate
human Bradykinin B2, sequence (P30411 whole entry): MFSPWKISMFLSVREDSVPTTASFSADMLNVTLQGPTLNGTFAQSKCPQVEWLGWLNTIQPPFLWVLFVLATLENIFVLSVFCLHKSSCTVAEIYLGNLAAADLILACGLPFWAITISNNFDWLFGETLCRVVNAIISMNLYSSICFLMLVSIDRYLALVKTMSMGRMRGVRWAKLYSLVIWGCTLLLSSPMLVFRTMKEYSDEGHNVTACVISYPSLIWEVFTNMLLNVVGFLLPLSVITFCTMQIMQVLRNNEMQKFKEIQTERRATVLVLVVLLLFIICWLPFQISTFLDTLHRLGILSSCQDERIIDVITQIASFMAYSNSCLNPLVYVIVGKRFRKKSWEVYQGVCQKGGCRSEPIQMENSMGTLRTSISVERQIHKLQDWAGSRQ

[19] = molecular target: hERG channel (Homo sapiens (Human), UniProt Q12809); assay: hERG inhibition
hERG channel, sequence (Q12809 whole entry): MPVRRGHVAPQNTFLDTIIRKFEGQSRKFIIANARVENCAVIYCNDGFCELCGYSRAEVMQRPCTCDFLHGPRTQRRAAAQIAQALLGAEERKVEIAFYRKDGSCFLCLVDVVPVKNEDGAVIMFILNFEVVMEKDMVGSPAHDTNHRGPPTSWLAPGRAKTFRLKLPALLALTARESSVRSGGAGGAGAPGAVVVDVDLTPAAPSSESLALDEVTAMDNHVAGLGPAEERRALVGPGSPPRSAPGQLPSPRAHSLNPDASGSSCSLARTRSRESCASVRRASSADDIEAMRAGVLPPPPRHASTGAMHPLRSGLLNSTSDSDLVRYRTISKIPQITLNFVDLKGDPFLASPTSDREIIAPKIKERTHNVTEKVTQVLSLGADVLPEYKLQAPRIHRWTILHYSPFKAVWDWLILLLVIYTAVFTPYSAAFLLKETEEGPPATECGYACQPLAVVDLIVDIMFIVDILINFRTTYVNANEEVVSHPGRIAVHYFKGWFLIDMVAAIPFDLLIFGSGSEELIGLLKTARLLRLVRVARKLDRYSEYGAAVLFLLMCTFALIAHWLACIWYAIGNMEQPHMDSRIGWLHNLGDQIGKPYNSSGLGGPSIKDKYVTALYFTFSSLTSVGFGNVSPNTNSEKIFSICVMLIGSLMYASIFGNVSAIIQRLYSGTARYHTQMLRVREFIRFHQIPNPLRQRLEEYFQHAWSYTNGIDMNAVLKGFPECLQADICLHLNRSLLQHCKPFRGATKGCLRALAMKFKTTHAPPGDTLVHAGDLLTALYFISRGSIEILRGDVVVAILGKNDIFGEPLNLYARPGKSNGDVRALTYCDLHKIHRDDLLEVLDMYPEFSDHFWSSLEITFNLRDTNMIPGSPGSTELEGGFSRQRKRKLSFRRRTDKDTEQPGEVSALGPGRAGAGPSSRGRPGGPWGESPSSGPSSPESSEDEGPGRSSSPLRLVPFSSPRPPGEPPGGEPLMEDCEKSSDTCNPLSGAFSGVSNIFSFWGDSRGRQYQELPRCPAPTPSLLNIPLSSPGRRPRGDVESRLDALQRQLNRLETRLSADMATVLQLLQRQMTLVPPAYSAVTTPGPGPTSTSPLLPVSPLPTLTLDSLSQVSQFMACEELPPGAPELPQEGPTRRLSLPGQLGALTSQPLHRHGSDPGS

[20] = molecular target: human Serotoninergic 5-HT1A (Homo sapiens (Human), UniProt P08908); assay: GPCR radioligand binding assay; details: tested at 10 μM in duplicate
[21] = molecular target: human Opioid μ (MOP) (Homo sapiens (Human), UniProt P35372); assay: GPCR radioligand binding assay; details: tested at 10 μM in duplicate
[22] = molecular target: human Adrenergic β1 (Homo sapiens (Human), UniProt P08588); assay: GPCR radioligand binding assay; details: tested at 10 μM in duplicate
[23] = molecular target: CYP3A4 (Homo sapiens (Human), UniProt P08684); assay: CYP450 Inhibition; format: in vitro ADME; details: at 10 μM
[24] = Pharmacokinetic profile, intravenous and oral administration; format: in vivo
Experimental: The ADME properties and the pharmacokinetic profile of compound 2 were evaluated.

[25] = molecular target: human TRPM8 (Homo sapiens (Human), UniProt Q7Z2W7); assay: HTS cellular-based calcium assay for human TRPM8 antagonists (FLIPR TETRA); details: HEK293/hTRPM8 cells, agonist Cooling Agent 10 at EC80, Ca2+ fluorescence
human TRPM8, sequence (Q7Z2W7 whole entry): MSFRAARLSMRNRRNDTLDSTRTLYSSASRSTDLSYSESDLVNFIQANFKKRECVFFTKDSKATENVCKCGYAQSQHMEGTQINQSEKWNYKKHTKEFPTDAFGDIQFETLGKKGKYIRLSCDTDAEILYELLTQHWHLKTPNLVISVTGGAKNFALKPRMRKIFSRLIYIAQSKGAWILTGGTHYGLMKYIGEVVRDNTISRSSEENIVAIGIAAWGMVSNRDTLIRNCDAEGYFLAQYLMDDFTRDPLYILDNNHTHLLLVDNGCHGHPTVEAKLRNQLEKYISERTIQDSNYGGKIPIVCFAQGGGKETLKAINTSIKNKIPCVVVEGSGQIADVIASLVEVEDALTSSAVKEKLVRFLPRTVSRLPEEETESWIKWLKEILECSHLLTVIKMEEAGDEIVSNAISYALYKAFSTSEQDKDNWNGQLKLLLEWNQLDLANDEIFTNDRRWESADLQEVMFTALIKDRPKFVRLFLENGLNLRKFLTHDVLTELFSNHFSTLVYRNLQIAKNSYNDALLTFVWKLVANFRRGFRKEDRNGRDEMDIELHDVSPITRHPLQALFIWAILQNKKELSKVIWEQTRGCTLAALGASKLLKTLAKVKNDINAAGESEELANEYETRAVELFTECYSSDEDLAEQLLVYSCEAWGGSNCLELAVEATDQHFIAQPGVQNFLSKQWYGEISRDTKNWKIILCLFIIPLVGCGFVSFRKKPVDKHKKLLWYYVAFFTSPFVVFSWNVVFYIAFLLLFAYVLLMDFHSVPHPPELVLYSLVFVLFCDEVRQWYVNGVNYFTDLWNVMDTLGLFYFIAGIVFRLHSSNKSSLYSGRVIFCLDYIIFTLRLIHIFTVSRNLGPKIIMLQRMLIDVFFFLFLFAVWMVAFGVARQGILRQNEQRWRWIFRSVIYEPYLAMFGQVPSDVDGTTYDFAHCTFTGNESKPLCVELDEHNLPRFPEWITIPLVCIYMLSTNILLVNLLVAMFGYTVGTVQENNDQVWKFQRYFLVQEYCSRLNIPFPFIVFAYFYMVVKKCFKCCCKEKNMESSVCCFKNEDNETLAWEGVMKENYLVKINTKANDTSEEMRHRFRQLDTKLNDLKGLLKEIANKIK

[26] = molecular target: TRPV1 (Homo sapiens (Human), UniProt Q8NER1); assay: TRPV1 antagonist calcium influx assay; format: cell-based; details: agonist capsaicin = 100%, ruthenium red = 0
Text: The signal elicited in the presence of the positive control agonist (capsaicin) was set to 100% and the signal in the presence of the antagonist (ruthenium red) was set to 0. […] The signal elicited in the presence of the positive control agonist (GSK1016790A) was set to 100% and the signal in the presence of the antagonist (ruthenium red) was set to 0. […] The signal elicited in the presence of the positive control agonist (allyl isothiocyanate, AITC) was set to 100% and the signal in the presence of the antagonist (ruthenium red) was set to 0.

[27] = molecular target: human Opioid δ2 (DOP) (Homo sapiens (Human), UniProt P41143); assay: GPCR radioligand binding assay; details: tested at 10 μM in duplicate
human Opioid δ2 (DOP), sequence (P41143 whole entry): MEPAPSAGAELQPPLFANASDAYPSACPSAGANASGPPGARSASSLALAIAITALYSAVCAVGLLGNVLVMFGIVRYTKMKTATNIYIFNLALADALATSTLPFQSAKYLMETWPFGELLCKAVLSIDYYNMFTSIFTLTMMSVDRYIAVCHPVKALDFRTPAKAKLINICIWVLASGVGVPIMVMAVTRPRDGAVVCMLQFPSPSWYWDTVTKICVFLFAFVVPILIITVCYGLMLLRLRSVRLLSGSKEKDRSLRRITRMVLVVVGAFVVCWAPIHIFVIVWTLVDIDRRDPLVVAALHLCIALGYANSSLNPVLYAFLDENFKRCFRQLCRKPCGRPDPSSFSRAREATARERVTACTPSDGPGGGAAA

[28] = molecular target: human Cannabinoid CB2 (Homo sapiens (Human), UniProt P34972); assay: GPCR radioligand binding assay; details: tested at 10 μM in duplicate
[29] = CLint (rat); format: in vitro ADME
[30] = molecular target: human Cannabinoid CB1 (Homo sapiens (Human), UniProt P21554); assay: GPCR radioligand binding assay; details: tested at 10 μM in duplicate
[31] = molecular target: human Adrenergic β2 (Homo sapiens (Human), UniProt P07550); assay: GPCR radioligand binding assay; details: tested at 10 μM in duplicate
[32] = molecular target: human Histamine H2 (Homo sapiens (Human), UniProt P25021); assay: GPCR radioligand binding assay; details: tested at 10 μM in duplicate
[33] = molecular target: human Muscarinic M2 (Homo sapiens (Human), UniProt P08172); assay: GPCR radioligand binding assay; details: tested at 10 μM in duplicate
[34] = molecular target: CYP2C9 (Homo sapiens (Human), UniProt P11712); assay: CYP450 Inhibition; format: in vitro ADME; details: at 10 μM
[35] = molecular target: human Muscarinic M3 (Homo sapiens (Human), UniProt P20309); assay: GPCR radioligand binding assay; details: tested at 10 μM in duplicate
[36] = tested on: human cytochrome isoform; assay: Effect towards human cytochrome isoforms; format: in vitro ADME; details: at the maximal concentration of 10 μM
[37] = molecular target: human Histamine H1 (Homo sapiens (Human), UniProt P35367); assay: GPCR radioligand binding assay; details: tested at 10 μM in duplicate
[38] = day 7 and day 14, 3 hours and 5 hours post-dose
[39] = day 7 and day 14 after nerve injury, 3 hours after treatment
[40] = oral administration, PO 10 mg/kg
[41] = plasma, intravenous administration, IV 5 mg/kg
[42] = plasma, oral administration, PO 10 mg/kg

Compound: CCC(=O)c1sc(-c2cccc(F)c2)nc1[O-].[Na+] [Compound 2, sodium 2-(3-fluorophenyl)-5-propanoyl-1,3-thiazol-4-olate]
- effect on mechanical allodynia [1, 38]: significantly attenuated
- maximal activity, inhibition of mechanical allodynia [1, 39]: about 50%
- activity towards human NK1 [2]: inactive
- IC50 [3]: > 30 µM
- activity towards human Dopamine D2S [4]: inactive
- activity towards human Bradykinin B1 [5]: inactive
- pKa [6]: 4.18
- activity towards human Opioid K (KOP) [7]: inactive
- Rat Plasma Stability (% remaining) ([8]; at 30 min): 98.2%
- Rat Plasma Stability (% remaining) ([8]; at 60 min): 80.3%
- activity towards human Adrenergic α1A [9]: inactive
- fraction unbound [10]: 0.0129
- IC50 [11]: > 30 µM
- fraction unbound [12]: 0.025
- activity towards human Adrenergic α2A [13]: inactive
- activity towards human Opioid NOP (ORL1) [14]: inactive
- effect on cold allodynia [15, 38]: significantly attenuated
- maximal activity, inhibition of cold allodynia [15, 39]: about 50%
- IC50 [16]: > 30 µM
- activity towards human Dopamine D3 [17]: inactive
- activity towards human Bradykinin B2 [18]: inactive
- IC50 [19]: > 1000 µM
- effect towards hERG channel [19]: none effect
- activity towards human Serotoninergic 5-HT1A [20]: inactive
- activity towards human Opioid μ (MOP) [21]: inactive
- activity towards human Adrenergic β1 [22]: inactive
- IC50 [23]: > 30 µM
- Vds ([24]; intravenous administration, IV 5 mg/kg): 1.78 L/kg
- CL [24, 40]: 6.41 mL/min/kg
- t1/2 [24, 40]: 2.94 h
- clearance [24, 41]: 6.81 mL/min/kg
- half-life [24, 41]: 3.01 h
- AUC [24, 42]: 26100 ng·h/mL
- Cmax [24, 42]: 10300 ng/mL
- Tmax [24, 42]: 0.25 h
- half-life [24, 42]: 2.94 h
- bioavailability ([24]; plasma, oral administration, PO 10 mg/kg vs IV 5 mg/kg): 100%
- IC50 [25]: 0.028 µM
- IC50 [26]: > 10 µM
- activity towards human Opioid δ2 (DOP) [27]: inactive
- activity towards human Cannabinoid CB2 [28]: inactive
- microsomal CLint [29]: 29.4 µL/min/mg
- activity towards human Cannabinoid CB1 [30]: inactive
- activity towards human Adrenergic β2 [31]: inactive
- activity towards human Histamine H2 [32]: inactive
- activity towards human Muscarinic M2 [33]: inactive
- IC50 [34]: > 30 µM
- activity towards human Muscarinic M3 [35]: inactive
- effect towards any human cytochrome isoform [36]: no effect
- activity towards human Histamine H1 [37]: inactive

- IC50 [25]: 0.331 µM
Compound: CC(C)CC(=O)c1sc(-c2cccc(F)c2)nc1O [Compound 38, 1-[2-(3-fluorophenyl)-4-hydroxy-1,3-thiazol-5-yl]-3-methylbutan-1-one]

- IC50 [25]: 0.388 µM
Compound: CON(C)C(=S)c1sc(-c2cccc(F)c2)nc1O [Compound 41, 2-(3-fluorophenyl)-4-hydroxy-N-methoxy-N-methyl-1,3-thiazole-5-carbothioamide]

— patent publication US11046662B2, “2-aryl-4-hydroxy-1,3-thiazole derivatives useful as TRPM8-inhibitors in treatment of neuralgia, pain, COPD and asthma” (DOMPÉ FARMACEUTICI S.P.A., priority 2014, dated 2021)
